# In ChEMBL document CHEMBL1125472, “5-lipoxygenase: properties, pharmacology, and the quinolinyl(bridged)aryl class of inhibitors” (J Med Chem, 1992):
# Legend:
# [1] = molecular target: T1, Polyunsaturated fatty acid 5-lipoxygenase (Rattus norvegicus, UniProt P12527); experiment: The compound was tested for inhibitory activity against 5-lipoxygenase in rat polymorphonuclear leukocytes[PMNS]; assay type: cell-based
# T1 sequence (P12527 whole entry): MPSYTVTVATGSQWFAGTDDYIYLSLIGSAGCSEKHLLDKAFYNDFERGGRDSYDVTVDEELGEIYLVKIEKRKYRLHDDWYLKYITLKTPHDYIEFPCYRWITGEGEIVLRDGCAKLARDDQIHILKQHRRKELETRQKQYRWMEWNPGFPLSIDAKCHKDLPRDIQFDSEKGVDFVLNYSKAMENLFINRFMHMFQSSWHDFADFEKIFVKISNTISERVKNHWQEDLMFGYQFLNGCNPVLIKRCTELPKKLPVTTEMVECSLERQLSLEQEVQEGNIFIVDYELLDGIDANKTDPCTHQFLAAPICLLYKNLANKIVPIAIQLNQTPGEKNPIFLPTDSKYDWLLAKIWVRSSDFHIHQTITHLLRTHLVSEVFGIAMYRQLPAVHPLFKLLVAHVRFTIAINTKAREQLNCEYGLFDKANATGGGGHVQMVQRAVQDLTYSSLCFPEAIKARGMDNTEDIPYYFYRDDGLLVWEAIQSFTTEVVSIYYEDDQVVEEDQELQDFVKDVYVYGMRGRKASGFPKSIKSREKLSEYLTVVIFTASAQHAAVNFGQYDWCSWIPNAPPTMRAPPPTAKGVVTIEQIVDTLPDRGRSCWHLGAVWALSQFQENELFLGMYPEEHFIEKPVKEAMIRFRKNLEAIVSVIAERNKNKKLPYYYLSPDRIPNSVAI
# Cavia porcellus [2] = species: Cavia porcellus; experiment: The effective dose for inhibition of LTD4-induced contractions of guinea pig trachea; assay type: functional
# Cyclooxygenase = molecular target: T2, Cyclooxygenase (Rattus norvegicus, UniProt P35355+Q63921); experiment: The compound was tested for inhibitory activity against Prostaglandin G/H synthase in rat polymorphonuclear leukocytes[PMNS]; assay type: cell-based
# T2 sequence (P35355 whole entry): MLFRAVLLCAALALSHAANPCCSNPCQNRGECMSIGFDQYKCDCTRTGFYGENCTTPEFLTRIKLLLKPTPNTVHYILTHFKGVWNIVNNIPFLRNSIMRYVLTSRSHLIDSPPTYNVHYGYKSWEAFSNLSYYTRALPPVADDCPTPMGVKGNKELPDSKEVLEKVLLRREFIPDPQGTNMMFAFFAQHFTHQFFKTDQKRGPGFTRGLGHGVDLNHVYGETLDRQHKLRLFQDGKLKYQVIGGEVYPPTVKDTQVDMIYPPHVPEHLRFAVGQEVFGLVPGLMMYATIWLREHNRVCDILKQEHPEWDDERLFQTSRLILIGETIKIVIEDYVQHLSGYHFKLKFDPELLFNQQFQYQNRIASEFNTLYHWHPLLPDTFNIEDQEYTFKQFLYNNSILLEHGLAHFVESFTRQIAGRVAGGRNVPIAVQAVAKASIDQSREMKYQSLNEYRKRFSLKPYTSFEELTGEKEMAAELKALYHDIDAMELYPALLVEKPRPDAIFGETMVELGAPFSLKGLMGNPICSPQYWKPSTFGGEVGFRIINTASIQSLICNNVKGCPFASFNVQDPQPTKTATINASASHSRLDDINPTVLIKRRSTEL
# T2 sequence (Q63921 whole entry): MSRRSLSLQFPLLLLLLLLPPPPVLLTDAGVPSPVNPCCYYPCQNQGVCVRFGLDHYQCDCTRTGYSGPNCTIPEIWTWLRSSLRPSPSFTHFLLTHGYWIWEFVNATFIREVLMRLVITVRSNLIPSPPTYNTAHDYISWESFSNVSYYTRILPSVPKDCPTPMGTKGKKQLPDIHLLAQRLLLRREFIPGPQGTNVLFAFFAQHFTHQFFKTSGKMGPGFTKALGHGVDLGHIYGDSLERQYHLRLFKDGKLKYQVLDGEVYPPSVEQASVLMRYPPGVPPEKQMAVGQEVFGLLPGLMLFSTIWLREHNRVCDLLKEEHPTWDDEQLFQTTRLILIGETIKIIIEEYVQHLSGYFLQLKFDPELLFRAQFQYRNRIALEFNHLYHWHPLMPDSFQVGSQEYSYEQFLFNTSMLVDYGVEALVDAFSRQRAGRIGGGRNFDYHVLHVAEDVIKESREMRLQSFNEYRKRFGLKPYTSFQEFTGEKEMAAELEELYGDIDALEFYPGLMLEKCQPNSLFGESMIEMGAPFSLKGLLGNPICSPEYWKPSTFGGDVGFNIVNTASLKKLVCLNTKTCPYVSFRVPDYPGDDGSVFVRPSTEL
# Homo sapiens [3] = species: Homo sapiens; experiment: The compound was tested for inhibitory activity against Leukotriene synthesis in human monocytes; assay type: functional
# [4] = molecular target: T3, Polyunsaturated fatty acid 5-lipoxygenase (Rattus norvegicus) (UniProt P12527); experiment: The compound was tested for inhibition of isolated 5-lipoxygenase
# T3 sequence (whole entry): T1 sequence (P12527 whole entry)
# [5] = molecular target: T4, Polyunsaturated fatty acid 5-lipoxygenase (Homo sapiens, UniProt P09917); experiment: The compound was tested for inhibitory activity against LT synthesis in human polymorphonuclear leukocytes[PMNS]; assay type: cell-based
# T4 sequence (P09917 whole entry): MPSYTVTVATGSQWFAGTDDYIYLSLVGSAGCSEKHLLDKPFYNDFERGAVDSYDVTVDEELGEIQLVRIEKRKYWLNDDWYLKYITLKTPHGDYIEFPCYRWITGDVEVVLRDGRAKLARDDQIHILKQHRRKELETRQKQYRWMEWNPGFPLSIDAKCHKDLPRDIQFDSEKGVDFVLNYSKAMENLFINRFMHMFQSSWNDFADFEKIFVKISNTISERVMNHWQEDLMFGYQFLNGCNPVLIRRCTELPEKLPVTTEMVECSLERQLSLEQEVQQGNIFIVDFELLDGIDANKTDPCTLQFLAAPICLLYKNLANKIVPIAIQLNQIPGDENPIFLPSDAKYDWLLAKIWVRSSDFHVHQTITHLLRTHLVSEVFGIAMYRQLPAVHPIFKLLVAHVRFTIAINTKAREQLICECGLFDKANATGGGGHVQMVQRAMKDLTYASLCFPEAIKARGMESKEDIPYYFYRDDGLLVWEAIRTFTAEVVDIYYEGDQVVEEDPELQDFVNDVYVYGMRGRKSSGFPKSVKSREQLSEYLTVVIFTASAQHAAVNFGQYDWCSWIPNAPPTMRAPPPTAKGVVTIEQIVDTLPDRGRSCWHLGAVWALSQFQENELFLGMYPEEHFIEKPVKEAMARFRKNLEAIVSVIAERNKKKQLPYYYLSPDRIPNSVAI
# [6] = molecular target: T1, Polyunsaturated fatty acid 5-lipoxygenase; experiment: The compound was tested for inhibitory activity against 5-lipoxygenase translocation inhibitor in rat RBL-2H3 cells; assay type: functional, cell-based
# [7] = molecular target: T5, Leukotriene C4 synthase (Rattus norvegicus) (UniProt Q925U2); experiment: The compound was tested for inhibition LTC4 synthase from whole cells in rat
# T5 sequence (whole entry): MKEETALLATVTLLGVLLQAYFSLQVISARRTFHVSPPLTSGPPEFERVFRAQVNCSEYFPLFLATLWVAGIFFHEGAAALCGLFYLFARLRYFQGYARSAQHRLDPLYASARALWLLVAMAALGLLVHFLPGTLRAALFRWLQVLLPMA
# Homo sapiens [8] = species: Homo sapiens; experiment: The compound was tested for inhibitory activity against 5-Lipoxygenase in human polymorphonuclear leukocytes[PMNS]; assay type: functional
# [9] = molecular target: T3, Polyunsaturated fatty acid 5-lipoxygenase (Rattus norvegicus); experiment: The compound was tested for inhibition of 5-lipoxygenase translocation in SAR in rat RBL-2H3 cells; assay type: functional, cell-based
# [10] = The compound was tested for inhibitory activity against Leukotriene B4 receptor in mouse mastocytoma
# Cavia porcellus [11] = species: Cavia porcellus; experiment: The compound was tested for binding affinity against guinea pig lung membrane using [3H]LTD4 as radioligand
# Cavia porcellus [12] = experiment: The compound was tested for inhibition of LTD4 response in guinea pig bronchoconstriction assay after intraduodenal administration (30 mg/kg)
# [13] = molecular target: T3, Polyunsaturated fatty acid 5-lipoxygenase (Rattus norvegicus); experiment: The compound was tested for inhibition against 5-Lipoxygenase in rat polymorphonuclear leukocytes at 10 uM concentration; assay type: cell-based
# [14] = molecular target: T1, Polyunsaturated fatty acid 5-lipoxygenase; experiment: The compound was tested for inhibitory activity against 5-Lipoxygenase in rat RBL-1; assay type: cell-based
# [15] = molecular target: T4, Polyunsaturated fatty acid 5-lipoxygenase
# [16] = molecular target: T3, Polyunsaturated fatty acid 5-lipoxygenase (Rattus norvegicus); experiment: The compound was tested for inhibition against 5-lipoxygenase in rat polymorphonuclear leukocytes[PMNS] at 10 uM concentration; assay type: cell-based
# [17] = molecular target: T1, Polyunsaturated fatty acid 5-lipoxygenase; experiment: The compound was tested for inhibitory activity against 5-Lipoxygenase in rat polymorphonuclear leukocytes[PMNS]; assay type: cell-based
compound,measurement,setting,value
CCN(CC)C(=O)N(C)C[C@H](O)c1cccc(OCc2ccc3ccccc3n2)c1,IC50,[1],2000 nM
c1cc(Cc2nnn[nH]2)cc(OCc2ccc3ccccc3n2)c1,ED50,Cavia porcellus [2],0.4 mg/kg
same,IC50,Cyclooxygenase,13400 nM
same,IC50,[1],6200 nM
CC(C)c1ccc2c(c1)c(SC(C)(C)C)c(CC(C)(C)C(=O)O)n2Cc1ccc(Cl)cc1,IC50,Homo sapiens [3],50 nM
same,Inhibition,[4],> 20 µM
same,IC50,[5],60 nM
same,IC50,[6],5 nM
same,Inhibition,[7],3 nM
same,IC50,Homo sapiens [8],2.5 nM
same,Inhibition,[9],35 nM
CCOC(=O)Oc1ccc(/C=C/C=C/C(=O)NCCN2CCC(OC(c3ccccc3)c3ccccc3)CC2)cc1OC [LINETASTINE],IC50,[10],320 nM
CCCCC[C@H](O)c1cccc(OCc2cccc(CC(=O)O)c2)c1,IC50,[1],2500 nM
CCCCCC(O)c1cccc(OCc2ccc3ccccc3n2)c1 (stereo not drawn) [REV-5901],Ki,Cavia porcellus [11],700 nM
same,Inhibition,Cavia porcellus [12],74%
CC(C(=O)O)c1ccc2c3cc(OCc4ccc5ccccc5n4)ccc3n(Cc3ccc4ccccc4n3)c2c1 (stereo not drawn),Inhibition,[13],92%
COc1ccc(-n2nc(CCC(=O)N(C)O)cc2-c2ccc(Cl)cc2)cc1 [TEPOXALIN],IC50,[14],150 nM
COc1c(OC)c(OC(C)=O)c2cc(Cl)ccc2c1OC(C)=O [LONAPALENE],IC50,[14],500 nM
O=C(CCCCCCCCc1ccccc1)NO,IC50,[15],6000 nM
CSc1ccccc1/C=C/C(=O)N(C)O,IC50,[15],100 nM
O=C(O)CCc1nc(-c2ccc(OCc3ccc4ccccc4n3)cc2)c(-c2ccccc2)o1,Inhibition,[16],96%
Cc1ccc(S(=O)(=O)NC(=O)c2cccc(OCc3ccc4ccccc4n3)c2)cc1,ED50,Cavia porcellus [2],3 mg/kg
same,IC50,[17],3900 nM
